Patent US20200345002A1, “COMPOSITIONS AND METHODS FOR INDUCING CROP CHANGES BY LEVERAGING THE EFFECTS OF AN APPLIED AGRICULTURAL CHEMICAL” (ADVANCED BIOLOGICAL MARKETING, INC., priority 2017, published 2020)

Test system: weedy target
Assay: Greenhouse Paraquat spray on weedy target
Type: in vivo
Details: 24 hours post spray
From the text: Turning to FIG. 8, recovery of replicates of plants using compositions of the present invention is shown. The control is in the upper left and the remaining plants are colonized with single Trichoderma strains, with 3 replicate plants per strain.

C[n+]1ccc(-c2cc[n+](C)cc2)cc1.[Cl-].[Cl-] [Paraquat, N,N′-dimethyl-4,4′-bipyridinium dichloride]
killing effect of the Paraquat application: complete killing effect
